“And” between values parts separate entries of the source, which are not always exact repeats. Identical values can stand only once. Counter-ions that a name gives are not always drawn. Like-named read-outs stand apart in the source and are kept apart here.
Legend:
line A549 (lung) = test: Cytotoxic activity: inhibition of cell proliferation, ATPLite luminescence of residual ATP after 72 hours; type: cell-based, human; conditions: A549 lung tumoral line, 72 hours of incubation
Method: (§1) The cytotoxic activity of the compounds prepared according to the invention was evaluated by measuring inhibition of the cell proliferation of tumoral lines of human origin, such as line A549 (lung) and line HCT 116 (colon). This activity is expressed by IC50, concentration of the tested product capable of inhibiting 50% of cell proliferation. The method used is luminescence measurement of the residual ATP after 72 hours of incubation using the “ATPLite®” kit marketed by Perkin Elmer, as described in the following publication: “Measurement of cytotoxicity by ATP-based luminescence assay in primary cell cultures and cell lines”. I. A. Cree, P. E. Andreotti, Toxicology in Vitro, 11, 553-6, (1997).
(§2) The concentration values are expressed in nanomolar (nM).

line HCT 116 (colon) = test: as above; type: cell-based, human; conditions: HCT 116 colon tumoral line, 72 hours of incubation, read-out: IC50 (nM) HCT116
Method: as §1, §2

[1] = Solubility measurement in buffer D-PBS 1X (pH = 7.2); conditions: for solubility: pH 7.2, aqueous buffer
Excerpt: The solvent used is constituted by a buffered solution at pH=7.2 “Dulbecco's Phosphate Buffered Saline” (D-PBS 1X), marketed by Gibco (reference 14190).

Row | SMILES | IC50 (line A549 (lung); Homo sapiens) | IC50 (line HCT 116 (colon); Homo sapiens) | other results
1 | [N-]=[N+]=N[C@H]1[C@H](O)[C@@H](O)[C@@H](O)[C@@H]2NC(=O)c3c(cc4c(c3O)OCO4)[C@@H]12 [Compound 5, (1R,2S,3S,4S,4aR,11bR)-1-azido-2,3,4,7-tetrahydroxy-1,2,3,4,4a,5-hexahydro-[1,3]dioxolo[4,5-j]phenanthridin-6(11bH)-one] | 68 nM | 36 nM | –
2 | N[C@H]1[C@H](O)[C@@H](O)[C@@H](O)[C@@H]2NC(=O)c3c(cc4c(c3O)OCO4)[C@@H]12 [Compound 6, (1R,2S,3R,4S,4aR,11bS)-1-amino-2,3,4,7-tetrahydroxy-1,2,3,4,4a,5-hexahydro-[1,3]dioxolo[4,5-j]phenanthridin-6(11bH)-one] | 60 nM | 35 nM | Solubility Buffer D-PBS 1X (pH = 7.2), mass by volume unit ([1]; D-PBS 1X, pH = 7.2): 508 μg/mL; Solubility Buffer D-PBS 1X (pH = 7.2), molarity ([1]; D-PBS 1X, pH = 7.2): 1340 μM
3 | CC(C)(C)OC(=O)N[C@H]1[C@H](O)[C@@H](O)[C@@H](O)[C@@H]2NC(=O)c3c(cc4c(c3O)OCO4)[C@@H]12 [Compound 10, tert-butyl(1R,2S,3S,4S,4aR,11bR)-2,3,4,7-tetrahydroxy-6-oxo-1,2,3,4,4a,5,6,11b-octahydro-[1,3]dioxolo[4,5-j]phenanthridin-1-ylcarbamate] | 270 nM | 32 nM | –
4 | O=C1N[C@H]2[C@H](O)[C@H](O)[C@@H](O)[C@H](NCc3ccccc3)[C@@H]2c2cc3c(c(O)c21)OCO3 [Compound 14, (1R,2S,3R,4S,4aR,11bS)-1-(benzylamino)-2,3,4,7-tetrahydroxy-1,2,3,4,4a,5-hexahydro-[1,3]dioxolo[4,5-j]phenanthridin-6(11bH)-one] | 22 nM | 12 nM | –
5 | CN(C)[C@H]1[C@H](O)[C@@H](O)[C@@H](O)[C@@H]2NC(=O)c3c(cc4c(c3O)OCO4)[C@H]21 [Compound 16, (1R,2S,3S,4S,4aR,11bR)-1-(dimethylamino)-2,3,4,7-tetrahydroxy-1,2,3,4,4a,5-hexahydro-[1,3]dioxolo[4,5-j]phenanthridin-6(11bH)-one] | 150 nM | 81 nM | –
6 | O=C1N[C@H]2[C@H](O)[C@H](O)[C@@H](O)[C@H](NC(=O)C3CCCCC3)[C@@H]2c2cc3c(c(O)c21)OCO3 [Compound 21, N-((1R,2S,3R,4S,4aR,11bS)-2,3,4,7-tetrahydroxy-6-oxo-1,2,3,4,4a,5,6,11b-octahydro-[1,3]dioxolo[4,5-j]phenanthridin-1-yl)cyclohexanecarboxamide] | 46 nM | 13 nM | –
7 | O=C(N[C@H]1[C@H](O)[C@@H](O)[C@@H](O)[C@@H]2NC(=O)c3c(cc4c(c3O)OCO4)[C@@H]12)c1ccccc1 [Compound 22, N-((1R,2S,3R,4S,4aR,11bS)-2,3,4,7-tetrahydroxy-6-oxo-1,2,3,4,4a,5,6,11b-octahydro-[1,3]dioxolo[4,5-j]phenanthridin-1-yl)benzamide] | 8.7 nM | 4.7 nM | solubility ([1]; Solubility Buffer D-PBS 1X (pH = 7.2), mass by volume unit, D-PBS 1X, pH = 7.2): 393 µg/mL; solubility ([1]; Solubility Buffer D-PBS 1X (pH = 7.2), molarity, D-PBS 1X, pH = 7.2): 867 µM
8 | CN(C)Cc1cccc(C(=O)N[C@H]2[C@H](O)[C@@H](O)[C@@H](O)[C@@H]3NC(=O)c4c(cc5c(c4O)OCO5)[C@@H]23)c1 [Compound 28, 3-((dimethylamino)methyl)-N-((1R,2S,3R,4S,4aR,11bS)-2,3,4,7-tetrahydroxy-6-oxo-1,2,3,4,4a,5,6,11b-octahydro-[1,3]dioxolo[4,5-j]phenanthridin-1-yl)benzamide] | 110 nM | 130 nM | –
9 | N[C@H]1[C@H](O)[C@@H](O)[C@@H](O)[C@@H]2NC(=O)c3c(cc4c(c3O)OCO4)[C@@H]12 [Hydrochloride of Compound 6, (1R,2S,3R,4S,4aR,11bS)-1-amino-2,3,4,7-tetrahydroxy-1,2,3,4,4a,5-hexahydro-[1,3]dioxolo[4,5-j]phenanthridin-6(11bH)-one] | – | – | Solubility Buffer D-PBS 1X (pH = 7.2), molarity ([1]; D-PBS 1X, pH = 7.2): 3870 μM; Solubility Buffer D-PBS 1X (pH = 7.2), mass by volume unit ([1]; D-PBS 1X, pH = 7.2, listed as compound 6 isolated in the hydrochloride form): 1250 μg/mL
10 | O=C1N[C@@H]2C(=C[C@H](O)[C@@H](O)[C@H]2O)c2cc3c(c(O)c21)OCO3 [Narciclasine 1, Narciclasine, reference compound] | – | – | IC50 (line A549 (lung)): 49 nM; IC50 (line HCT 116 (colon)): 22 nM; solubility [1]: 401 µM and 131 µg/mL

Source: US8697064B2, “Nitrogenated derivatives of pancratistatin” (Pierre Fabre Medicament, priority 2008, dated 2014)
